Measured values reported in patent US4405625A, “Method of treating hyperglycemia with 1,3-dioxo-1H-benz[de]isoquinoline-2(3H)-acetic acid” (Ayerst, McKenna and Harrison Limited, priority 1979, dated 1983).

How the values were obtained:
LD50 in rats = conditions: rat, in vivo
Excerpt: Therefore, a good therapeutic index of safety is present.

plasma glucose [1] = assay: Acute administration without glucose bolus in fasted rats: plasma glucose; assay type: in vivo, rat (male Sprague Dawley); conditions: acute i.v. administration
Method: (§1) Male Sprague Dawley rats (200-250 g, Canadian Breeding Laboratories, St. Constant, Quebec, Canada) were used in the experiment. There were 11 animals in the group. The animals were kept in a room with constant light-dark cycle and temperature. They were allowed food (Purina Lab Chow™) and water ad libitum for at least three days before being utilized. The animals were then fasted for 24 hours and anaesthetized with nembutal (50 mg/kg, intraperitoneally; Abbott Laboratories, Montreal, Quebec, Canada.) The jugular veins were exposed and a fasting blood sample was drawn by the transmusculature puncture method, Y. Kato, J. Dupre and J. C. Beck, Endocrinology, 93, 135 (1973), employing a sodium heparin (The Upjohn Company, Don Mills, Ontario, Canada) washed syringe. […]
(§2) Plasma insulin was measured by radioimmunoassay using a charcoal separation method, V. Herbert et al, J. Clin. Endocrinol., 25, 1375 (1965). […] Plasma glucose was measured by a glucose oxidase method employing a Beckman Glucose Analyser, see Beckman Company Manual, Palo Alto, Calif., U.S.A.
(§3) The results, noted below, are expressed as mean± S.E.M. The statistical significance of changes in the concentration of plasma glucose (mg/100 ml) and insulin (μU/ml), in response to alrestatin or the vehicle, from basal fasting values was determined on the differences between group means by the Student's […]. […]

aldose reductase = conditions: previously reported; cited from earlier work
plasma insulin [2] = assay: Acute administration without glucose bolus in fasted rats: plasma insulin; assay type: in vivo, rat (male Sprague Dawley); conditions: acute i.v. administration
Method: as §1, §2, §3

plasma glucagon = assay: Arginine-induced glucagon release in intact rats; assay type: in vivo, rat (male Sprague-Dawley)
Method: (§4) After light deithyl ether anaesthetization, the animals were injected with a bolus of saline or alrestatin (sodium salt form in 0.3 ml saline/100 g of body weight) in the external jugular vein followed immediately with a bolus of arginine-HCl (British Drug House ) at a dose of 100 mg/100 g of body weight, cf. […] Vehicle control animals received a second injection of saline. Five minutes later trunk blood was collected by decapitation into chilled tubes containing sodium heparin (Upjohn) and aprotinin(Trasylol™, Boehringer-Ingelheim Dorval, Quebec, Canada) (20 U and 1000 KIU per ml whole blood, respectively). Plasma was collected after centrifugation, stored at -20° C. and assayed for immunoreactive glucagon and insulin levels within 2 weeks.
(§5) Rat insulin purchased from Novo A/S, Copenhagen, Denmark, was used as unlabelled standard. […] Glucagon antiserum (Antiserum 30K, purchased from Dr. R. H. Unger, Houston, Tex., U.S.A.) was employed in the assay. […] Metab. […] Metab. […] Antibody bound hormone was separated from free hormone by conventional charcoal-dextran methods.

plasma insulin [3] = assay: Arginine-induced insulin release in intact rats; assay type: in vivo, rat (male Sprague-Dawley)
Method: as §4, §5

blood glucose = assay: Clinical tests in diabetic patients: blood glucose levels; assay type: in vivo, human (diabetic patients)
Excerpt: All patients were on a controlled diet. Patient A also was receiving the oral antidiabetic agent, glyburide (Daonil™) and patient C also was receiving the diuretic chlorthalidone (Hygroton™).

plasma insulin [4] = assay: Intravenous glucose tolerance test in anaesthetized fasted non-diabetic male intact rats: plasma insulin; assay type: in vivo, rat (male Sprague Dawley); conditions: 0.75 mmol/kg i.v.
Method: (§6) A description of this experiment is as follows.
as §1, with “syringe. Alrestatin sodium at a dose of 0.75 mmol/kg was administered as a bolus in the jugular vein followed immediately by a bolus of D-glucose (300 mg/kg; British Drug House, Montreal, Quebec, Canada). Control animals received an injection of sodium chloride (0.75 mmol/kg) instead of the alrestatin sodium. Blood samples were drawn at 5, 10 and 15 minutes after injection of the glucose. The wounds then were closed with autoclips (Clay Adams Co., Parsippany, N. J., U.S.A.) and the animals were allowed food and water for another three day period before the experiment was repeated, i.e., on day 4.” for “syringe.”
as §2, §3

plasma glucose [5] = assay: Intravenous glucose tolerance test in anaesthetized fasted non-diabetic male intact rats: plasma glucose; assay type: in vivo, rat (male Sprague Dawley); conditions: 0.75 mmol/kg i.v., mean±S.E.M.
Method: as §6
as §1, with “syringe. Alrestatin sodium at a dose of 0.75 mmol/kg was administered as a bolus in the jugular vein followed immediately by a bolus of D-glucose (300 mg/kg; British Drug House, Montreal, Quebec, Canada). Control animals received an injection of sodium chloride (0.75 mmol/kg) instead of the alrestatin sodium. Blood samples were drawn at 5, 10 and 15 minutes after injection of the glucose. The wounds then were closed with autoclips (Clay Adams Co., Parsippany, N. J., U.S.A.) and the animals were allowed food and water for another three day period before the experiment was repeated, i.e., on day 4.” for “syringe.”
as §2, §3

[6] = arginine 100 mg/100 g i.v., 5 min
[7] = 200 mg/kg i.v. immediately before arginine 100 mg/100 g
[8] = 35-200 mg/kg i.v. immediately before arginine 100 mg/100 g

## O=C(O)CN1C(=O)c2cccc3cccc(c23)C1=O [alrestatin, 1,3-dioxo-1H-benz[de]isoquinoline-2(3H)-acetic acid]
LD50 in rats; iv, intravenously
  LD50: 1220 ± 45 mg/kg
LD50 in rats; po, perorally
  LD50: > 2500 mg/kg
Plasma glucose [1]
  change in plasma glucose levels vs vehicle: did not significantly alter
Aldose reductase
  inhibition of the enzyme aldose reductase: inhibitor of the enzyme aldose reductase
Plasma insulin [2]
  change in basal fasting plasma insulin levels vs vehicle: did not significantly alter

## N=C(N)NCCC[C@H](N)C(=O)O [arginine, reference compound]
Plasma glucagon; [6]
  stimulated glucagon release, mean above plasma hormone concentration in vehicle treated animals: about 100 pg/ml
Plasma glucagon; arginine 100 mg/100 g i.v., 5 min, vehicles 180.6±5.8 pg/ml
  plasma glucagon concentration: 284.8 ± 13.7 pg/mL
Plasma insulin [3]; [6]
  increase of plasma insulin concentration: about 100 μU/ml

## O=C(O)CN1C(=O)c2cccc3cccc(c23)C1=O [alrestatin sodium]
Blood glucose; 50 mg/kg/day i.v. for five days, diabetic patients
  lowering of blood sugar levels: effective in lowering blood sugar levels
Blood glucose; Patient A (also on glyburide), day 1, 50 mg/kg/day i.v., pretreatment 162
  blood glucose, fasting: 132 mg %
Blood glucose; Patient A (also on glyburide), day 1, 50 mg/kg/day i.v., pretreatment 276
  blood glucose, 2hr postprandial: 185 mg %
Blood glucose; Patient A (also on glyburide), day 2, 50 mg/kg/day i.v., pretreatment 162
  blood glucose, fasting: 130 mg %
Blood glucose; Patient A (also on glyburide), day 2, 50 mg/kg/day i.v., pretreatment 276
  blood glucose, 2hr postprandial: 215 mg %
Blood glucose; Patient A (also on glyburide), day 3, 50 mg/kg/day i.v., pretreatment 162
  blood glucose, fasting: 97 mg %
Blood glucose; Patient A (also on glyburide), day 3, 50 mg/kg/day i.v., pretreatment 276
  blood glucose, 2hr postprandial: 155 mg %
Blood glucose; Patient A (also on glyburide), day 4, 50 mg/kg/day i.v., pretreatment 162
  blood glucose, fasting: 90 mg %
Blood glucose; Patient A (also on glyburide), day 4, 50 mg/kg/day i.v., pretreatment 276
  blood glucose, 2hr postprandial: 117 mg %
Blood glucose; Patient A (also on glyburide), day 5, 50 mg/kg/day i.v., pretreatment 162
  blood glucose, fasting: 132 mg %
Blood glucose; Patient A (also on glyburide), day 5, 50 mg/kg/day i.v., pretreatment 276
  blood glucose, 2hr postprandial: 230 mg %
Blood glucose; Patient A (also on glyburide), follow-up after 5 days i.v. treatment, pretreatment 162
  blood glucose, fasting: 111 mg %
Blood glucose; Patient A (also on glyburide), follow-up after 5 days i.v. treatment, pretreatment 276
  blood glucose, 2hr postprandial: 207 mg %
Blood glucose; Patient B, day 1, 50 mg/kg/day i.v., pretreatment 90
  blood glucose, fasting: 92 mg %
Blood glucose; Patient B, day 1, 50 mg/kg/day i.v., pretreatment 119
  blood glucose, 2hr postprandial: 72 mg %
Blood glucose; Patient B, day 2, 50 mg/kg/day i.v., pretreatment 90
  blood glucose, fasting: 89 mg %
Blood glucose; Patient B, day 2, 50 mg/kg/day i.v., pretreatment 119
  blood glucose, 2hr postprandial: 86 mg %
Blood glucose; Patient B, day 3, 50 mg/kg/day i.v., pretreatment 90
  blood glucose, fasting: 86 mg %
Blood glucose; Patient B, day 3, 50 mg/kg/day i.v., pretreatment 119
  blood glucose, 2hr postprandial: 94 mg %
Blood glucose; Patient B, day 4, 50 mg/kg/day i.v., pretreatment 90
  blood glucose, fasting: 50 mg %
Blood glucose; Patient B, day 4, 50 mg/kg/day i.v., pretreatment 119
  blood glucose, 2hr postprandial: 60 mg %
Blood glucose; Patient B, day 5, 50 mg/kg/day i.v., pretreatment 90
  blood glucose, fasting: 50 mg %
Blood glucose; Patient B, day 5, 50 mg/kg/day i.v., pretreatment 119
  blood glucose, 2hr postprandial: 43 mg %
Blood glucose; Patient B, follow-up after 5 days i.v. treatment, pretreatment 90
  blood glucose, fasting: 81 mg %
Blood glucose; Patient B, follow-up after 5 days i.v. treatment, pretreatment 119
  blood glucose, 2hr postprandial: 87 mg %
Blood glucose; Patient C (also on chlorthalidone), day 1, 50 mg/kg/day i.v., pretreatment 95
  blood glucose, fasting: 133 mg %
Blood glucose; Patient C (also on chlorthalidone), day 1, 50 mg/kg/day i.v., pretreatment 190
  blood glucose, 2hr postprandial: 128 mg %
Blood glucose; Patient C (also on chlorthalidone), day 2, 50 mg/kg/day i.v., pretreatment 95
  blood glucose, fasting: 111 mg %
Blood glucose; Patient C (also on chlorthalidone), day 2, 50 mg/kg/day i.v., pretreatment 190
  blood glucose, 2hr postprandial: 145 mg %
Blood glucose; Patient C (also on chlorthalidone), day 3, 50 mg/kg/day i.v., pretreatment 95
  blood glucose, fasting: 104 mg %
Blood glucose; Patient C (also on chlorthalidone), day 3, 50 mg/kg/day i.v., pretreatment 190
  blood glucose, 2hr postprandial: 141 mg %
Blood glucose; Patient C (also on chlorthalidone), day 4, 50 mg/kg/day i.v., pretreatment 95
  blood glucose, fasting: 50 mg %
Blood glucose; Patient C (also on chlorthalidone), day 4, 50 mg/kg/day i.v., pretreatment 190
  blood glucose, 2hr postprandial: 90 mg %
Blood glucose; Patient C (also on chlorthalidone), day 5, 50 mg/kg/day i.v., pretreatment 95
  blood glucose, fasting: 77 mg %
Blood glucose; Patient C (also on chlorthalidone), day 5, 50 mg/kg/day i.v., pretreatment 190
  blood glucose, 2hr postprandial: 106 mg %
Blood glucose; Patient C (also on chlorthalidone), follow-up after 5 days i.v. treatment, pretreatment 95
  blood glucose, fasting: 119 mg %
Blood glucose; Patient C (also on chlorthalidone), follow-up after 5 days i.v. treatment, pretreatment 190
  blood glucose, 2hr postprandial: 149 mg %
Plasma glucagon; [7]
  effect on arginine-stimulated glucagon increase: completely prevented the increase caused by arginine
Plasma glucagon; [8]
  effect on arginine-stimulated glucagon concentrations: decreased the glucagon concentrations
Plasma insulin [3]; [7]
  increase of arginine-induced insulin release: about 2.5 fold
Plasma insulin [3]; [8]
  effect on arginine-induced insulin release: increased the insulin release observed with arginine
Plasma insulin [4]; 5 min after i.v. glucose (300 mg/kg), mean±S.E.M., vehicle 32.9±5.2, p<0.02
  mean incremental change of plasma insulin: 76.9±16.7 μU/ml
Plasma insulin [4]; 10 min after i.v. glucose (300 mg/kg)
  plasma insulin levels vs vehicle: significantly greater
Plasma insulin [4]; 15 min after i.v. glucose (300 mg/kg)
  plasma insulin levels vs vehicle: greater at 15 minutes in the alrestatin treated group although the difference was not significant
Plasma glucose [5]; 5 min after i.v. glucose (300 mg/kg), vehicle 96±4.7, NS
  mean incremental change of plasma glucose: 83.3±5.4 mg %
Plasma glucose [5]; 10 min after i.v. glucose (300 mg/kg), vehicle 82.8±7.5, p<0.05
  mean incremental change of plasma glucose: 58.8±8.5 mg %
Plasma glucose [5]; 15 min after i.v. glucose (300 mg/kg), vehicle 78.4±10.7, p<0.05
  mean incremental change of plasma glucose: 45.4±9.6 mg %
